Source: ChEMBL document CHEMBL1909046, “DrugMatrix in vitro pharmacology data”

How the values were obtained:
[1] = DRUGMATRIX: Phorbol Ester radioligand binding (ligand: [3H] PDBu); assay type: cell membranes, Mus musculus, ICR, Brain, Membrane; conditions: Not Active = under 50% inhibition at 10 µM
D(4) dopamine receptor = molecular target: T1, D(4) dopamine receptor (Homo sapiens, UniProt P21917); test: DRUGMATRIX: Dopamine D4.2 radioligand binding (ligand: [3H] Spiperone); assay type: cell membranes, CHO-K1, Membrane; conditions: cho-k1; Not Active = under 50% inhibition at 10 µM
T1 sequence (P21917 whole entry): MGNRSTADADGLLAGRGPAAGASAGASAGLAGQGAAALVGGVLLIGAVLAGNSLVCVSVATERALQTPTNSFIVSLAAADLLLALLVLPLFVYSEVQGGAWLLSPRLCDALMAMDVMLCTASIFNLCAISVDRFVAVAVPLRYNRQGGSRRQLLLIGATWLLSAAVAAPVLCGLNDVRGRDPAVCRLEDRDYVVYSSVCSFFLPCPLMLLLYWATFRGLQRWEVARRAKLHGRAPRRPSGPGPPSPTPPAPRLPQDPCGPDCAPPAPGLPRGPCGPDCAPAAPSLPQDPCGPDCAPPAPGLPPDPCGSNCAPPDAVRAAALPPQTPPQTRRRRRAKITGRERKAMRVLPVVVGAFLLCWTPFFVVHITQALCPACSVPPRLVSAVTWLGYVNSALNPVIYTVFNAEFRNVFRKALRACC

[2] = molecular target: Prostaglandin G/H synthase 1 (Homo sapiens, UniProt P23219); test: biochemical; assay type: tissue-based, Platelet; conditions: platelet;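 note: inhibition of COX-1 enzyme activity, with arachidonic acid supplied as substrate; in other assays of this panel Not Active means under 50% inhibition at 10 µM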
[3] = molecular target: C-C chemokine receptor type 2 (Homo sapiens, UniProt P41597); assay type: cell membranes, Membrane; conditions: cho-k1; note: in other assays of this panel Not Active means under 50% inhibition at 10 µM
Cytochrome P450 1A2 = molecular target: T2, Cytochrome P450 1A2 (Homo sapiens, UniProt P05177); conditions: bti-tn-5b1-4; note: in other assays of this panel Not Active means under 50% inhibition at 10 µM
T2 sequence (P05177 whole entry): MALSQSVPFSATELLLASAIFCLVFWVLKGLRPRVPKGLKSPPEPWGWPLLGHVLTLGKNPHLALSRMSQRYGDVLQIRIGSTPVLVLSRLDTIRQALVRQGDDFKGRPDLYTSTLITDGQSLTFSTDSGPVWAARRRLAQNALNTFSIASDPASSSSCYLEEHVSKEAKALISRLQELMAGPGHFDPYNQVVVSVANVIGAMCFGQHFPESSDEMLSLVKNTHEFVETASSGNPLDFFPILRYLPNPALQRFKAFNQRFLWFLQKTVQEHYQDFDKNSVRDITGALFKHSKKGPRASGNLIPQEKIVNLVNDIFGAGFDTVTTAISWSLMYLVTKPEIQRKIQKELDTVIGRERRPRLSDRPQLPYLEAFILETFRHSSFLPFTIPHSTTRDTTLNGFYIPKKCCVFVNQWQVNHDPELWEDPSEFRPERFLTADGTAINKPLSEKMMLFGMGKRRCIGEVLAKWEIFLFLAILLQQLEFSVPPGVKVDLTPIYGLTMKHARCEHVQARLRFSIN

[4] = DRUGMATRIX: Phosphodiesterase PDE4 enzyme inhibition (substrate: [3H]cAMP + cAMP); conditions: u-937; Not Active = under 50% inhibition at 10 µM
[5] = DRUGMATRIX: Potassium Channel [KATP] radioligand binding (ligand: [3H] Glyburide); assay type: cell membranes, Membrane; conditions: hit-t15; Not Active = under 50% inhibition at 10 µM

Chain of C-C chemokine receptor type 2 (P41597 whole entry): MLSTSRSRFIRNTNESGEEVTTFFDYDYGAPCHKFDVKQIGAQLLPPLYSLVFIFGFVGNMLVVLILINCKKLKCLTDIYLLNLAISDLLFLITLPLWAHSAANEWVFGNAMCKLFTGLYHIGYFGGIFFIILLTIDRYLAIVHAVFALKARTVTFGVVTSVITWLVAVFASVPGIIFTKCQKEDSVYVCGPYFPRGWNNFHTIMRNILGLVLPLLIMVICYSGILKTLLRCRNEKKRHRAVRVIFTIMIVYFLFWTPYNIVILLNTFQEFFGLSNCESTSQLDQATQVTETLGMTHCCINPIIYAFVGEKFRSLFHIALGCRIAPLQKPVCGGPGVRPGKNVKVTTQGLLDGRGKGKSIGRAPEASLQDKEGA
Chain of Prostaglandin G/H synthase 1 (P23219 whole entry): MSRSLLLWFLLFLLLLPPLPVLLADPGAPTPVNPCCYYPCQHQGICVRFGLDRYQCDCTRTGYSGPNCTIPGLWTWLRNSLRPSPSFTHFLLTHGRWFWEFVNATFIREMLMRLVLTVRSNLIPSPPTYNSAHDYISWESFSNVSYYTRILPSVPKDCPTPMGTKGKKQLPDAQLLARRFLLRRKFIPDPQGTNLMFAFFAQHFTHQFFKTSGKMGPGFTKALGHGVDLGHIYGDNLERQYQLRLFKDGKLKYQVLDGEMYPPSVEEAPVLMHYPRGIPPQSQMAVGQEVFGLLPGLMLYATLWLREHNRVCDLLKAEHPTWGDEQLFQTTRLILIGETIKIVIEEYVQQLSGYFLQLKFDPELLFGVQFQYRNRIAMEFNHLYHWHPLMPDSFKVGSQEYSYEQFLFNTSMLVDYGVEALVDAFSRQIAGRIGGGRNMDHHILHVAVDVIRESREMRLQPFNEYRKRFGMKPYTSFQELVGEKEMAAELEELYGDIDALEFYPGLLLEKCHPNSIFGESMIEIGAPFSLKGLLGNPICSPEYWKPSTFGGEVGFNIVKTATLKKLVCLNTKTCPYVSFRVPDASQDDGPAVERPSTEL

CO/N=C(\C(=O)N[C@@H]1C(=O)N2C(C(=O)O)=C(COC(C)=O)CS[C@H]12)c1csc(N)n1 [CEFOTAXIME]
Not Active: IC50 [1] | Ki [1] | IC50 (D(4) dopamine receptor) | IC50 [2] | IC50 [3] | IC50 (Cytochrome P450 1A2) | Ki (Cytochrome P450 1A2) | IC50 [4] | Ki [4] | IC50 [5] | Ki [5]

CNC1=Nc2ccc(Cl)cc2C(c2ccccc2)=[N+]([O-])C1 [CHLORDIAZEPOXIDE]
Not Active: IC50 [1] | Ki [1] | IC50 (D(4) dopamine receptor) | IC50 [2] | IC50 [3] | IC50 (Cytochrome P450 1A2) | Ki (Cytochrome P450 1A2) | IC50 [4] | Ki [4] | IC50 [5] | Ki [5]

Cc1cc(O)cc(C)c1Cl [CHLOROXYLENOL]
Not Active: IC50 [1] | Ki [1] | IC50 (D(4) dopamine receptor) | IC50 [2] | IC50 [3] | IC50 (Cytochrome P450 1A2) | Ki (Cytochrome P450 1A2) | IC50 [4] | Ki [4] | IC50 [5] | Ki [5]

CCCNC(=O)NS(=O)(=O)c1ccc(Cl)cc1 [CHLORPROPAMIDE]
Not Active: IC50 [1] | Ki [1] | IC50 (D(4) dopamine receptor) | IC50 [2] | IC50 [3] | IC50 (Cytochrome P450 1A2) | Ki (Cytochrome P450 1A2) | IC50 [4] | Ki [4] | IC50 [5] | Ki [5]

NS(=O)(=O)c1cc(C2(O)NC(=O)c3ccccc32)ccc1Cl (stereo unspecified) [CHLORTHALIDONE]
Not Active: IC50 [1] | Ki [1] | IC50 (D(4) dopamine receptor) | IC50 [2] | IC50 [3] | IC50 (Cytochrome P450 1A2) | Ki (Cytochrome P450 1A2) | IC50 [4] | Ki [4] | IC50 [5] | Ki [5]

O=C(O)CC(O)(CC(=O)O)C(=O)O [CITRIC ACID]
Not Active: IC50 [1] | Ki [1] | IC50 (D(4) dopamine receptor) | IC50 [2] | IC50 [3] | IC50 (Cytochrome P450 1A2) | Ki (Cytochrome P450 1A2) | IC50 [4] | Ki [4] | IC50 [5] | Ki [5]

CC(C)NCC(O)c1ccccc1Cl (stereo unspecified) [CLORPRENALINE]
Not Active: IC50 [1] | Ki [1] | IC50 (D(4) dopamine receptor) | IC50 [2] | IC50 [3] | IC50 (Cytochrome P450 1A2) | Ki (Cytochrome P450 1A2) | IC50 [4] | Ki [4] | IC50 [5] | Ki [5]

CN1CCN(C(c2ccccc2)c2ccccc2)CC1 [CYCLIZINE]
Not Active: IC50 [1] | Ki [1] | IC50 (D(4) dopamine receptor) | IC50 [2] | IC50 [3] | IC50 (Cytochrome P450 1A2) | Ki (Cytochrome P450 1A2) | IC50 [4] | Ki [4] | IC50 [5] | Ki [5]

CN1C[C@@H]2C[C@H]1CN2c1cc2c(cc1F)c(=O)c(C(=O)O)cn2C1CC1 [DANOFLOXACIN]
Not Active: IC50 [1] | Ki [1] | IC50 (D(4) dopamine receptor) | IC50 [2] | IC50 [3] | IC50 (Cytochrome P450 1A2) | Ki (Cytochrome P450 1A2) | IC50 [4] | Ki [4] | IC50 [5] | Ki [5]

COc1cccc2c1C(=O)c1c(O)c3c(c(O)c1C2=O)C[C@@](O)(C(C)=O)C[C@@H]3O[C@H]1C[C@H](N)[C@H](O)[C@H](C)O1 [DAUNORUBICIN]
Not Active: IC50 [1] | Ki [1] | IC50 (D(4) dopamine receptor) | IC50 [2] | IC50 [3] | IC50 (Cytochrome P450 1A2) | Ki (Cytochrome P450 1A2) | IC50 [4] | Ki [4] | IC50 [5] | Ki [5]

O=C(O)c1cc(-c2ccc(F)cc2F)ccc1O [DIFLUNISAL]
Not Active: IC50 [1] | Ki [1] | IC50 (D(4) dopamine receptor) | IC50 [2] | IC50 [3] | IC50 (Cytochrome P450 1A2) | Ki (Cytochrome P450 1A2) | IC50 [4] | Ki [4] | IC50 [5] | Ki [5]

C[S+](C)[O-] [DIMETHYL SULFOXIDE]
Not Active: IC50 [1] | Ki [1] | IC50 (D(4) dopamine receptor) | IC50 [2] | IC50 [3] | IC50 (Cytochrome P450 1A2) | Ki (Cytochrome P450 1A2) | IC50 [4] | Ki [4] | IC50 [5] | Ki [5]

CC1=NN(c2ccccc2)C(=O)C1 [EDARAVONE]
Not Active: IC50 [1] | Ki [1] | IC50 (D(4) dopamine receptor) | IC50 [2] | IC50 [3] | IC50 (Cytochrome P450 1A2) | Ki (Cytochrome P450 1A2) | IC50 [4] | Ki [4] | IC50 [5] | Ki [5]

CC(C)C[C@H]1C(=O)N2CCC[C@H]2[C@]2(O)O[C@](NC(=O)[C@@H]3C=C4c5cccc6[nH]cc(c56)C[C@H]4N(C)C3)(C(C)C)C(=O)N12 [ERGOCRYPTINE]
Not Active: IC50 [1] | Ki [1] | IC50 (D(4) dopamine receptor) | IC50 [2] | IC50 [3] | IC50 (Cytochrome P450 1A2) | Ki (Cytochrome P450 1A2) | IC50 [4] | Ki [4] | IC50 [5] | Ki [5]

C[C@]12CC[C@@H]3c4ccc(O)cc4CC[C@H]3[C@@H]1C[C@@H](O)[C@@H]2O [ESTRIOL]
Not Active: IC50 [1] | Ki [1] | IC50 (D(4) dopamine receptor) | IC50 [2] | IC50 [3] | IC50 (Cytochrome P450 1A2) | Ki (Cytochrome P450 1A2) | IC50 [4] | Ki [4] | IC50 [5] | Ki [5]

CC(O)(P(=O)(O)O)P(=O)(O)O [ETIDRONIC ACID]
Not Active: IC50 [1] | Ki [1] | IC50 (D(4) dopamine receptor) | IC50 [2] | IC50 [3] | IC50 (Cytochrome P450 1A2) | Ki (Cytochrome P450 1A2) | IC50 [4] | Ki [4] | IC50 [5] | Ki [5]
